Key:
SLC16A11 [1] = assay: Compound treatment, SLC16A11 expression by ddPCR in SNU761 cells; assay type: cell-based, human; settings: SNU761 cells; same concentrations and treatment times as LINCS; ddPCR
Procedure, shortened: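 SNU761 hepatocellular carcinoma cells, plated 24 h, treated with compounds at 10 μM final or vehicle, with treatment times matching the LINCS dataset. SLC16A11 mRNA quantified by TaqMan droplet digital PCR, normalized to TBP or HPRT1.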

SLC16A11 [2] = assay: Compound treatment, SLC16A11 expression by ddPCR in NCIH716 cells; assay type: cell-based, human; settings: same concentrations and treatment times as LINCS
Experimental: A small number of the compounds that made the strongest positive connections to the SLC16A11 gene expression signature were selected and tested. […] Methotrexate was also included, which had been annotated as a dihydrofolate reductase inhibitor. SNU761 cells (derived from a human hepatocellular carcinoma) and NCIH716 cells (derived from a human cecum adenocarcinoma), which both express SLC16A11, were treated with the compounds. The same compound concentrations and treatment times were used as in the LINCS dataset experiments. […] For normalization, a different housekeeper gene, HPRT1, was used and obtained similar results with the mTOR inhibitors (FIGS. 14A and 14B).
SNU761 (human hepatocellular carcinoma) and NCIH716 (human cecum adenocarcinoma) were cultured in RPMI Medium 1640 supplemented with 10% Fetal Bovine Serum (FBS), 100 μg/ml Streptomycin and 100 U/ml Penicillin. Cells were grown in a humidified CO2 incubator, at 37° C.
For the unbiased approach taken to investigate the compounds that connected to the SLC16A11 gene expression signature, compounds were obtained from compound management at the Broad Institute.
SNU761 and NCIH716 cells were plated into 96 well plates at a density of 20,000 cells per well. Hepatocytes were plated into collagen coated 96 well plates (Corning, 354408) at a density of 50,000 cells per well. After 24 hours, cells were treated with compounds at a final concentration of 10 μM or vehicle control for the appropriate amount of time.
At the time of collection, cells in 96 well plates were lysed by directly adding 50 μL of RLT buffer (Qiagen). […]
RNA was DNase treated and converted into cDNA using the High-Capacity RNA-to-cDNA kit (Thermo Fisher Scientific). The following FAM-labeled TaqMan Real-Time PCR assays (Thermo Fisher Scientific) were used to quantify gene expression: SLC16A11 (Hs00601062_g1), SLC16A13 (Hs00416832_m1), SLC16A1 (Hs01560299_m1). […] Droplets were generated and analyzed using a QX200 Droplet Generator and Reader system (BioRad). Data was extracted using QuantaSoft (BioRad) and analyzed using Microsoft Excel.

SLC16A11 [3] = assay: Metabolic effectors on SLC16A11 transcript levels in SNU761 cells; assay type: cell-based, human; settings: 24 hours, low and high concentrations
Experimental: (§1) FIG. 22 provides bar graphs showing the effects of low and high concentrations of metabolic effectors (oleic acid (OA), insulin and glucagon) on expression levels of SLC16A11 and SLC16A13 transcripts in SNU761 cells cultured for 24 hours in the presence of low/high concentrations of OA (0.3 mM/1.5 mM); insulin (100 nM/500 nM); or glucagon (100 nM/500 nM). Relative transcipt levels of SLC16A11 and SLC16A13 are shown, with 2-FBS (2% Fetal Bovine Serum) used as control.
(§2) FIG. 23 provides bar graphs showing the effects of low and high concentrations of pyruvate or lactate on expression levels of SLC16A11 and SLC16A13 transcripts in SNU761 cells cultured for 24 hours in the presence of 2 mM pyruvate (low), 10 mM pyruvate (high), 20 mM lactate (low), or 100 mM lactate (high). Relative transcipt levels of SLC16A11 and SLC16A13 are shown, compared with transcript levels in cell cultured in increasing concentrations of glucose.
(§3) To assess whether metabolic effectors regulated SLC16A11 and SLC16A13 transcript levels, endogenous transcripts in SNU761 cells (derived from a human hepatocellular carcinoma) were examined following exposure of the cells to different metabolic perturbations. SNU761 cells were cultured in the presence of various metabolic effectors for 24 hours after which time cell lysates were collected and the relative endogenous expression levels of SLC16A11 and SLC16A13 transcripts were assessed. The metabolic effectors included in the cell cultures included oleic acid (OA) at a low concentration (0.3 mM) or a high concentration (1.5 mM); insulin at a low concentration (100 nM) or a high concentration (500 nM) and glucagon at a low concentration (100 nM) and a high concentration (500 nM). Cells cultured in 2-FBS were used as a control. […] (FIG. 22). Similarly, SNU761 cells were cultured in the presence or absence of low or high concentrations of pyruvate or lactate in the culture medium for 24 hours after which time cell lysates were analyzed. In the cultures, low (L) pyruvate concentration was 2 mM; high (H) pyruvate concentration was 10 mM, and low lactate concentration was 20 mM, while high lactate concentration was 100 mM. […] (FIG. 23).

SLC16A13 = assay: Metabolic effectors on SLC16A13 transcript levels in SNU761 cells; assay type: cell-based, human; settings: 24 hours, low and high concentrations
Experimental: as §1, §2, §3

SLC16A11 [4] = assay: SLC16A11 protein-protein interaction study (immunoprecipitation, quantitative mass spectrometry); parameters: species or system human; settings: putative SLC16A11^REF interaction partners; immunoprecipitation from HEK293T cells vs empty vector control; Blandt-Altman
Description: Alternatively, these variants may result in reduced transport because they disrupt protein-protein interactions responsible for correct SLC16A11 function. To explore this possibility, SLC16A11 was immunoprecipitated from HEK293T cells expressing either REF or T2D risk SLC16A11-V5 or empty vector control and quantitative mass spectrometry was used to define the SLC16A11 interactome.
Another mechanism through which the variants could affect activity is through disruption of protein-protein interactions. To explore this possibility, quantitative mass spectrometry-based protein-protein interaction studies were performed to define the SLC16A11 interactome and evaluate if the T2D risk coding variants alter any interactions.
Beads were then washed once with lysis buffer and three times with wash buffer. After the last wash, residual wash buffer was removed, 10 μL fresh wash buffer was added, and beads were stored at −80° C. until analysis by the Proteomics Platform at the Broad Institute, as detailed in the “Proteomics Methods for SLC16A11 Protein Interaction Studies” below.
The beads from immunopurification were washed once with IP lysis buffer, then three times with PBS, the three different lysates of each replicate were resuspended in 90 uL digestion buffer (2M Urea, 50 mM Tris HCl), 2 ug of sequencing grade trypsin added, 1 hour shaking at 700 rpm. The supernatant was removed and placed in a fresh tube. The beads were then washed twice with 50 uL digestion buffer and combined with the supernatant. The combined supernatants were reduced (2 uL 500 mM DTT, 30 minutes, RT), alkylated (4 uL 500 mM IAA, 45 minutes, dark) and a longer overnight digestion performed: 2 ug (4 uL) trypsin, shake o/n, The samples were then quenched with 20 uL 10% FA and desalted on 10 mg SepPak columns.
Desalted peptides were labelled with iTRAQ reagents according to the manufacturer's instructions (AB Sciex, Foster City, Calif.). Peptides were dissolved in 30 μl of 0.5 M TEAB pH 8.5 solution and labeling reagent was added in 70 ul of ethanol. After 1 h incubation the reaction was stopped with 50 mM Tris/HCl pH 7.5. Differentially labelled peptides were mixed and subsequently desalted on 10 mg SepPak columns.
Reconstituted peptides were separated on an online nanoflow EASY-nLC 1000 UHPLC system (Thermo Fisher Scientific) and analyzed on a benchtop Orbitrap Q Exactive Plus mass spectrometer (Thermo Fisher Scientific). The peptide samples were injected onto a capillary column (Picofrit with 10 μm tip opening/75 μm diameter, New Objective, PF360-75-10-N-5) packed in-house with 20 cm C18 silica material (1.9 μm ReproSil-Pur C18-AQ medium, Dr. Maisch GmbH, r119.aq). The UHPLC setup was connected with a custom-fit microadapting tee (360 μm, IDEX Health & Science, UH-753), and capillary columns were heated to 50° C. in column heater sleeves (Phoenix-ST) to reduce backpressure during UHPLC separation. Injected peptides were separated at a flow rate of 200 nL/min with a linear 80 min gradient from 100% solvent A (3% acetonitrile, 0.1% formic acid) to 30% solvent B (90% acetonitrile, 0.1% formic acid), followed by a linear 6 min gradient from 30% solvent B to 90% solvent B. Each sample was run for 120 min, including sample loading and column equilibration times. The Q Exactive instrument was operated in the data-dependent mode acquiring HCD MS/MS scans (R=17,500) after each MS1 scan (R=70,000) on the 12 top most abundant ions using an MS1 ion target of 3×10^6 ions and an MS2 target of 5×10^4 ions. The maximum ion time utilized for the MS/MS scans was 120 ms; the HCD-normalized collision energy was set to 27; the dynamic exclusion time was set to 20 s, and the peptide match and isotope exclusion functions were enabled.
All mass spectra were processed using the Spectrum Mill software package v6.0 pre-release (Agilent Technologies) which includes modules developed by us for iTRAQ-based quantification. […]

| Molecule | BA log fold change (SLC16A11 [4]) | further results |
| --- | --- | --- |
| CN(Cc1cnc2nc(N)nc(N)c2n1)c1ccc(C(=O)N[C@@H](CCC(=O)O)C(=O)O)cc1 [methotrexate, reference compound] | – | SLC16A11 transcript levels, compound treated compared to DMSO treated cells (SLC16A11 [1]): did not alter; SLC16A11 transcript levels, compound treated compared to DMSO treated cells (SLC16A11 [2]): did not alter |
| CCCCCCCC/C=C\CCCCCCCC(=O)O [oleic acid] | – | SLC16A11 transcript levels (SLC16A11 [3]): alter; SLC16A13 transcript levels (SLC16A13): increase |
| ATP1B3 | 1.18 | – |
| BAG6 | 1.08 | – |
| DNAJB4 | 1.08 | – |
| EMB | 1.55 | – |
| GCN1L1 | 1.01 | – |
| KIAA0368 | 1.16 | – |
| PSMA1 | 1.20 | – |
| PSMC3 | 1.16 | – |
| PSMD2 | 0.98 | – |
| PSMD11 | 1.02 | – |
| PSMD14 | 1.31 | – |
| RNF5 | 1.42 | – |
| SCFD1 | 1.08 | – |
| TUBA1B | 1.05 | – |
| glucagon: metabolic effector (hormone) | – | SLC16A11 transcript levels (SLC16A11 [3]): alter; SLC16A13 transcript levels (SLC16A13): alter |
| insulin: metabolic effector (hormone) | – | SLC16A11 transcript levels (SLC16A11 [3]): alter; SLC16A13 transcript levels (SLC16A13): alter |

Source: US11471462B2, “Compositions and methods for detecting and treating diabetes” (THE BROAD INSTITUTE, INC., priority 2016, dated 2022)
